Measured values: patent publication US20240148821A1, “PHARMACEUTICAL USE OF CYCLIC PEPTIDE COMPOUND” (CHUGAI SEIYAKU KABUSHIKI KAISHA, priority 2021, published 2024)
Bridge positions count the residues as written; N and C are the ends. Square brackets hold non-standard residues; d marks the D form. Peptide text beside a SMILES is read from it. * marks the point of attachment. hPhe(3-Cl-4-CF3) = N[C@@H](CCc1ccc(C(F)(F)F)c(Cl)c1)C(=O)O; hPhe(3-F,4-CF3) = N[C@@H](CCc1ccc(C(F)(F)F)c(F)c1)C(=O)O; NMePhe(4-CF3) = CN[C@@H](Cc1ccc(C(F)(F)F)cc1)C(=O)O; hPhe(4-CF3) = N[C@@H](CCc1ccc(C(F)(F)F)cc1)C(=O)O; NMePhe(3-Me) = CN[C@@H](Cc1cccc(C)c1)C(=O)O; NMeNle(6-CHF2) = CN[C@@H](CCCCC(F)F)C(=O)O; NMeGly(cPent) = CN[C@H](C(=O)O)C1CCCC1; Pro(4,4-F2) = O=C(O)[C@@H]1CC(F)(F)CN1; NMeCha = CN[C@@H](CC1CCCCC1)C(=O)O; NMeD = CN[C@@H](CC(=O)O)C(=O)O; CH2CONHtBu = CC(C)(C)NC(=O)C*; NMeL = CN[C@@H](CC(C)C)C(=O)O; Chg = N[C@H](C(=O)O)C1CCCCC1; NMeNle = CCCC[C@H](NC)C(=O)O; NMeV = CN[C@H](C(=O)O)C(C)C; d(β3hA) = C[C@@H](N)CC(=O)O; NMeS = CN[C@@H](CO)C(=O)O; NMeA = CN[C@@H](C)C(=O)O; Piperidide = C1CCN(*)CC1; Pra = C#CC[C@H](N)C(=O)O; dNMeA = CN[C@H](C)C(=O)O; Ac5c = NC1(C(=O)O)CCCC1; Aze = O=C(O)[C@@H]1CCN1; Ac4c = NC1(C(=O)O)CCC1; CH2CMe2OH = CC(C)(O)C*; Aib = CC(C)(N)C(=O)O; Isopentyl = CC(C)CC*; NEtG = CCNCC(=O)O; Sar = CNCC(=O)O

These compounds were tested on Human pancreatic cancer cell line AsPC-1 (G12D mutation Kras) (assay: AsPC-1 cell growth inhibition (AsPC-1 CGI)). Details: read-out: AsPC-1 cell growth inhibition, 50% growth inhibitory concentration (IC50 value); 96 hours, CellTiter-Glo, values classified in ranges.
Assay type: cell-based
Protocol: Test compounds were serially dilated with dimethyl sulfoxide, and 200 nL was then dispensed to a U-bottom 96-well plate using Labcyte Echo. […] The cell suspension was dispensed to a. plate containing a test compound at 100 μL per well and incubated at 37° C. in a 5% carbon dioxide gas incubator. 96 hours later, 80 μL of CellTiter-Glo (Promega) was added to each well and fluorescence was measured.

Structure (SMILES) | IC50
CC(C)C[C@H]1C(=O)N[C@@H](C(C)C)C(=O)N(C)CC(=O)N(C)CC(=O)N(C)[C@@H](CC2CCCCC2)C(=O)N(C)CC(=O)N[C@@H](CCc2ccc(C(F)(F)F)c(F)c2)C(=O)N2CCC[C@H]2C(=O)NC2(CCCC2)C(=O)N(C)[C@@H](CC(C)C)C(=O)N[C@H](C)CC(=O)N1C [Compound 1493] (cyclo([Ac5c][NMeL][d(β3hA)][NMeL]V[Sar][Sar][NMeCha][Sar][hPhe(3-F,4-CF3)]P)) | > 500 nM
CC[C@H](C)[C@@H]1NC(=O)[C@H](CC(C)C)N(C)C(=O)C[C@@H](C(=O)N2CCCCC2)N(C)C(=O)[C@H](CC(C)C)N(C)C(=O)C(C)(C)NC(=O)[C@H](COCC(=O)NC(C)(C)C)N(C)C(=O)[C@H](CCc2ccc(C(F)(F)F)cc2)NC(=O)CN(C)C(=O)[C@H](COCCC(C)C)N(C)C(=O)CN(C)C(=O)CN(C)C1=O [Compound 1502] ([NMeL]I[Sar][Sar][NMeS](Isopentyl)[Sar][hPhe(4-CF3)][NMeS](CH2CONHtBu)[Aib][NMeL][NMeD]-Piperidide; lactam N-11) | > 500 nM
CC[C@H](C)[C@@H]1NC(=O)[C@H](CC(C)C)N(C)C(=O)C[C@@H](C)NC(=O)[C@H](CC(C)C)N(C)C(=O)C2(CCCC2)NC(=O)[C@@H]2CCCN2C(=O)[C@H](CCc2ccc(C(F)(F)F)c(Cl)c2)NC(=O)CN(C)C(=O)[C@H](CC2CCCCC2)N(C)C(=O)CN(C)C(=O)CN(C)C1=O [Compound 1503] (cyclo([Ac5c][NMeL][d(β3hA)][NMeL]I[Sar][Sar][NMeCha][Sar][hPhe(3-Cl-4-CF3)]P)) | > 500 nM
CC[C@H](C)[C@@H]1NC(=O)[C@H](C)N(C)C(=O)C[C@@H](C)NC(=O)[C@H](C2CCCC2)N(C)C(=O)C2(CCC2)NC(=O)[C@@H]2CCCN2C(=O)[C@H](CCc2ccc(C(F)(F)F)c(Cl)c2)NC(=O)CN(C)C(=O)[C@H](CC2CCCCC2)N(C)C(=O)CN(C)C(=O)CN(C)C1=O [Compound 1506] (cyclo([Ac4c][NMeGly(cPent)][d(β3hA)][NMeA]I[Sar][Sar][NMeCha][Sar][hPhe(3-Cl-4-CF3)]P)) | > 500 nM
CC[C@H](C)[C@@H]1NC(=O)[C@H](C)N(C)C(=O)C[C@@H](C)NC(=O)[C@H](C2CCCC2)N(C)C(=O)C2(CCCC2)NC(=O)[C@@H]2CCCN2C(=O)[C@H](CCc2ccc(C(F)(F)F)c(Cl)c2)NC(=O)[C@@H](C)N(C)C(=O)[C@H](Cc2ccc(C(F)(F)F)cc2)N(C)C(=O)[C@@H]2CCN2C(=O)CN(C)C1=O [Compound 1507] (cyclo([Ac5c][NMeGly(cPent)][d(β3hA)][NMeA]I[Sar][Aze][NMePhe(4-CF3)][dNMeA][hPhe(3-Cl-4-CF3)]P)) | > 500 nM
CC[C@H](C)[C@@H]1NC(=O)[C@H](CC(C)C)N(C)C(=O)C[C@@H](C)NC(=O)[C@H](CC(C)C)N(C)C(=O)C2(CCCC2)NC(=O)[C@@H]2CC(F)(F)CN2C(=O)[C@H](CCc2ccc(C(F)(F)F)c(F)c2)NC(=O)CN(C)C(=O)[C@H](CC2CCCCC2)N(C)C(=O)CN(C)C(=O)CN(C)C1=O [Compound 1509] (cyclo([Ac5c][NMeL][d(β3hA)][NMeL]I[Sar][Sar][NMeCha][Sar][hPhe(3-F,4-CF3)][Pro(4,4-F2)])) | > 500 nM
CC[C@H](C)[C@@H]1NC(=O)[C@H](CC(C)C)N(C)C(=O)C[C@@H](C)NC(=O)[C@H](CC(C)C)N(C)C(=O)C2(CCCC2)NC(=O)[C@@H]2CCCN2C(=O)[C@H](CCc2ccc(C(F)(F)F)c(F)c2)NC(=O)CN(C)C(=O)[C@H](CCCCC(F)F)N(C)C(=O)CN(C)C(=O)CN(C)C1=O [Compound 1515] (cyclo([Ac5c][NMeL][d(β3hA)][NMeL]I[Sar][Sar][NMeNle(6-CHF2)][Sar][hPhe(3-F,4-CF3)]P)) | > 500 nM
CCCC[C@H]1C(=O)N[C@H](C)CC(=O)N(C)[C@@H](CC(C)C)C(=O)N[C@@H]([C@@H](C)CC)C(=O)N(C)CC(=O)N(C)CC(=O)N(C)[C@@H](CC2CCCCC2)C(=O)N(C)CC(=O)N[C@@H](CCc2ccc(C(F)(F)F)c(F)c2)C(=O)N2CCC[C@H]2C(=O)NC2(CCCC2)C(=O)N1C [Compound 1518] (cyclo([Ac5c][NMeNle][d(β3hA)][NMeL]I[Sar][Sar][NMeCha][Sar][hPhe(3-F,4-CF3)]P)) | > 500 nM
CC[C@H](C)[C@@H]1NC(=O)[C@H](C)N(C)C(=O)C[C@@H](C)NC(=O)[C@H](C2CCCC2)N(C)C(=O)C2(CCCC2)NC(=O)[C@@H]2CCCN2C(=O)[C@H](CCc2ccc(C(F)(F)F)c(Cl)c2)NC(=O)[C@@H](C)N(C)C(=O)[C@H](Cc2ccc(C(F)(F)F)cc2)N(C)C(=O)CN(C)C(=O)CN(C)C1=O [Compound 1520] (cyclo([Ac5c][NMeGly(cPent)][d(β3hA)][NMeA]I[Sar][Sar][NMePhe(4-CF3)][dNMeA][hPhe(3-Cl-4-CF3)]P)) | > 500 nM
CC[C@H](C)[C@@H]1NC(=O)[C@H](CC(C)C)N(C)C(=O)C[C@@H](C)NC(=O)[C@H](CC(C)C)N(C)C(=O)C(C)(C)NC(=O)[C@H](CC(C)C)N(C)C(=O)[C@H](CCc2ccc(C(F)(F)F)c(F)c2)NC(=O)CN(C)C(=O)[C@H](CCCCC(F)F)N(C)C(=O)CN(C)C(=O)CN(C)C1=O [Compound 1526] (cyclo([Aib][NMeL][d(β3hA)][NMeL]I[Sar][Sar][NMeNle(6-CHF2)][Sar][hPhe(3-F,4-CF3)][NMeL])) | > 500 nM
CC(C)C[C@H]1C(=O)N[C@@H](C2CCCCC2)C(=O)N(C)CC(=O)N(C)CC(=O)N(C)[C@@H](CC2CCCCC2)C(=O)N(C)CC(=O)N[C@@H](CCc2ccc(C(F)(F)F)c(F)c2)C(=O)N2CCC[C@H]2C(=O)NC2(CCCC2)C(=O)N(C)[C@@H](CC(C)C)C(=O)N[C@H](C)CC(=O)N1C [Compound 1527] (cyclo([Ac5c][NMeL][d(β3hA)][NMeL][Chg][Sar][Sar][NMeCha][Sar][hPhe(3-F,4-CF3)]P)) | > 500 nM
CC[C@H](C)[C@@H]1NC(=O)[C@H](CC(C)C)N(C)C(=O)C[C@@H](C(=O)N2CCCCC2)N(C)C(=O)[C@H](CC(C)C)N(C)C(=O)C(C)(C)NC(=O)[C@H](COCC(C)(C)O)N(C)C(=O)[C@H](CCc2ccc(C(F)(F)F)cc2)NC(=O)CN(C)C(=O)[C@H](COCCC(C)C)N(C)C(=O)CN(C)C(=O)CN(CC)C1=O [Compound 1528] ([NMeL]I[NEtG][Sar][NMeS](Isopentyl)[Sar][hPhe(4-CF3)][NMeS](CH2CMe2OH)[Aib][NMeL][NMeD]-Piperidide; lactam N-11) | > 500 nM
CC[C@H](C)[C@@H]1NC(=O)[C@H](CC(C)C)N(C)C(=O)C[C@@H](C(=O)N2CCCCC2)N(C)C(=O)[C@H](CC(C)C)N(C)C(=O)C(C)(C)NC(=O)[C@H](COCC(C)(C)O)N(C)C(=O)[C@H](CCc2ccc(C(F)(F)F)c(F)c2)NC(=O)CN(C)C(=O)[C@H](COCCC(C)C)N(C)C(=O)CN(C)C(=O)CN(C)C1=O [Compound 1532] ([NMeL]I[Sar][Sar][NMeS](Isopentyl)[Sar][hPhe(3-F,4-CF3)][NMeS](CH2CMe2OH)[Aib][NMeL][NMeD]-Piperidide; lactam N-11) | > 500 nM
C#CC[C@@H]1NC(=O)[C@H](CC(C)C)N(C)C(=O)C[C@@H](C)NC(=O)[C@H](CC(C)C)N(C)C(=O)C2(CCCC2)NC(=O)[C@@H]2CCCN2C(=O)[C@H](CCc2ccc(C(F)(F)F)c(F)c2)NC(=O)CN(C)C(=O)[C@H](CC2CCCCC2)N(C)C(=O)CN(C)C(=O)CN(C)C1=O [Compound 1533] (cyclo([Ac5c][NMeL][d(β3hA)][NMeL][Pra][Sar][Sar][NMeCha][Sar][hPhe(3-F,4-CF3)]P)) | > 500 nM
CC[C@H](C)[C@@H]1NC(=O)[C@H](CC(C)C)N(C)C(=O)C[C@@H](C)NC(=O)[C@H](C(C)C)N(C)C(=O)C2(CCCC2)NC(=O)[C@@H]2CCCN2C(=O)[C@H](CCc2ccc(C(F)(F)F)c(F)c2)NC(=O)CN(C)C(=O)[C@H](CC2CCCCC2)N(C)C(=O)CN(C)C(=O)CN(C)C1=O [Compound 1534] (cyclo([Ac5c][NMeV][d(β3hA)][NMeL]I[Sar][Sar][NMeCha][Sar][hPhe(3-F,4-CF3)]P)) | > 500 nM
CC[C@H](C)[C@@H]1NC(=O)[C@H](C)N(C)C(=O)C[C@@H](C)NC(=O)[C@H](C2CCCC2)N(C)C(=O)C2(CCCC2)NC(=O)[C@@H]2CCCN2C(=O)[C@H](CCc2ccc(C(F)(F)F)c(Cl)c2)NC(=O)[C@@H](C)N(C)C(=O)[C@H](CC2CCCCC2)N(C)C(=O)CN(C)C(=O)CN(C)C1=O [Compound 1535] (cyclo([Ac5c][NMeGly(cPent)][d(β3hA)][NMeA]I[Sar][Sar][NMeCha][dNMeA][hPhe(3-Cl-4-CF3)]P)) | > 500 nM
CC[C@H](C)[C@@H]1NC(=O)[C@H](CC(C)C)N(C)C(=O)C[C@@H](C(=O)N2CCCCC2)N(C)C(=O)[C@H](CC(C)C)N(C)C(=O)C(C)(C)NC(=O)[C@H](COCC(C)(C)O)N(C)C(=O)[C@H](CCc2ccc(C(F)(F)F)c(Cl)c2)NC(=O)CN(C)C(=O)[C@H](COCCC(C)C)N(C)C(=O)CN(C)C(=O)CN(C)C1=O [Compound 1541] ([NMeL]I[Sar][Sar][NMeS](Isopentyl)[Sar][hPhe(3-Cl-4-CF3)][NMeS](CH2CMe2OH)[Aib][NMeL][NMeD]-Piperidide; lactam N-11) | > 500 nM
CC[C@H](C)[C@@H]1NC(=O)[C@H](CC(C)C)N(C)C(=O)C[C@@H](C)NC(=O)[C@H](CC(C)C)N(C)C(=O)C2(CCCC2)NC(=O)[C@@H]2CCN2C(=O)[C@H](CCc2ccc(C(F)(F)F)c(F)c2)NC(=O)CN(C)C(=O)[C@H](CC2CCCCC2)N(C)C(=O)CN(C)C(=O)CN(C)C1=O [Compound 1545] (cyclo([Ac5c][NMeL][d(β3hA)][NMeL]I[Sar][Sar][NMeCha][Sar][hPhe(3-F,4-CF3)][Aze])) | > 500 nM
CC[C@H](C)[C@@H]1NC(=O)[C@H](CC(C)C)N(C)C(=O)C[C@@H](C)NC(=O)[C@H](CC(C)C)N(C)C(=O)C(C)(C)NC(=O)[C@H](COCC(C)(C)O)N(C)C(=O)[C@H](CCc2ccc(C(F)(F)F)c(Cl)c2)NC(=O)CN(C)C(=O)[C@H](COCCC(C)C)N(C)C(=O)CN(C)C(=O)CN(C)C1=O [Compound 1546] (cyclo([Aib][NMeL][d(β3hA)][NMeL]I[Sar][Sar][NMeS](Isopentyl)[Sar][hPhe(3-Cl-4-CF3)][NMeS](CH2CMe2OH))) | > 500 nM
CC[C@H](C)[C@@H]1NC(=O)[C@H](CC(C)C)N(C)C(=O)C[C@@H](C)NC(=O)[C@H](C(C)C)N(C)C(=O)C2(CCCC2)NC(=O)[C@@H]2CCCN2C(=O)[C@H](CCc2ccc(C(F)(F)F)c(Cl)c2)NC(=O)CN(C)C(=O)[C@H](Cc2cccc(C)c2)N(C)C(=O)CN(C)C(=O)CN(C)C1=O [Compound 1547] (cyclo([Ac5c][NMeV][d(β3hA)][NMeL]I[Sar][Sar][NMePhe(3-Me)][Sar][hPhe(3-Cl-4-CF3)]P)) | > 500 nM
